From patent US20140356383A1, “ADMINISTRATION OF AN ANTI-GCC ANTIBODY-DRUG CONJUGATE AND A DNA DAMAGING AGENT IN THE TREATMENT OF CANCER” (priority 2013, published 2014)
Square brackets hold non-standard residues; d marks the D form. Peptide text beside a SMILES is read from it. * marks the point of attachment. Dolaproine = CO[C@@H]([C@@H]1CCCN1)[C@@H](C)C(=O)O; Hexanoyl(6-maleimido) = O=C1C=CC(=O)N1CCCCCC(=O)*; Dil = CC[C@H](C)[C@H](NC)[C@@H](CC(=O)O)OC; X1 = C[C@@H](N*)[C@@H](O)c1ccccc1; NMeV = CN[C@H](C(=O)O)C(C)C

Legend:
[1] = tested on: 293 GCC#2 tumors; test: Efficacy study with auristatin conjugates in 293 GCC#2 tumors, q7d×4; assay type: in vivo, SCID mice; design: TGI / TGD: unit not given here; conditions: for CR/PR: complete response/partial response; for T/C: treatment/control; for TGD: tumor growth delay
Protocol: 293 GCC#2 tumor-bearing SCID mice were treated with 5F9 conjugates with vc MMAE, vcMMAF or mcMMAF at three doses in comparison with 209 conjugates of these toxins or with free toxins or vehicle control. Doses were administered iv on a q7d×4 schedule. Tumors were harvested at days 3, 7, 10, 13 and 17. […] Table 18 provides a summary of the results (TGI=tumor growth inhibition, T/C=treatment/control, TGD=tumor growth delay, CR/PR=complete response/partial response; p value=measure to judge statistical significance, NS=not significant).

[2] = tested on: PHTX-9c primary human colon tumor xenograft; test: Single agent antitumor activity in PHTX-9c (PHTX-09c) primary human colon tumor xenograft
Protocol: Female CB-17 SCID mice (eight weeks old) were inoculated subcutaneously (SC) into the flank with PHTX-9c tumor fragments (2 mm×2 mm). Tumor growth was monitored twice per week using vernier calipers and the mean tumor volume was calculated using the formula (0.5×[length×width^2]). When the mean tumor volume reached approximately 150 mm^3 (Study A) or 160 mm^3 (Study B), animals were randomized into treatment groups (n=10/group for Study A and n=9/group for Study B).
Doses were administered on Days 1, 8, and 15 for the QW schedule and Days 1, 4, 8, 11, 15, and 18 for the BIW schedule. […] The equivalent dose of linker+MMAE is 4% of the 5F9-vcMMAE dose. These calculations are based on a mean 3.9 MMAE molecules per antibody and a free antibody molecular weight of 150 kD. Actual antibody molecular weight will vary slightly due to degree of glycosylation.
Tumor volume and body weight were measured twice weekly and were continued beyond the treatment period to measure regrowth kinetics, as evidenced by tumor growth delay (TGD). Tumor volume measurements were continued until tumor volume reached 10% of the body weight in a single mouse within a treatment group, at which time the group was terminated. The percentage of tumor growth inhibition (TGI) ([mean tumor volume of the control group—mean tumor volume of a treated group]/mean tumor volume of the control group; a T/C ratio) was determined on Day 20. The T/C ratios across a treatment group were compared to the T/C ratios of the control group using a two-tailed Welch's t-test.
The differences in the tumor growth trends over time between pairs of treatment groups were assessed using linear mixed effects regression models. These models account for the fact that each animal was measured at multiple time points. A separate model was fit for each comparison, and the areas under the curve (AUC) for each treatment group were calculated using the predicted values from the model. The percent decrease in AUC (dAUC) relative to the reference group was then calculated.
The 5F9 vcMMAE immunoconjugate was tested for single agent anti-tumor activity in the four primary human tumor xengraft models at varying concentrations in order to explore whether GCC expression levels played a role in tumor sensitivity. […] Free-MMAE was also used as a negative control.

[3] = Free-MMAE levels in serum vs. tumor after 5F9 vcMMAE; assay type: in vivo, mice; design: AUCinf Serum / AUCinf Tumor: concentration or dose not given beside the values; conditions: for AUCinf Serum / AUCinf Tumor: free MMAE after 5F9 vcMMAE; for Tumor/Serum: ratio of MMAE AUCinf
Protocol: Thus, the 5F9 vcMMAE immunoconjugate was confirmed to bind to GCC in the refractory PHTX-11c model. Free-MMAE levels in serum vs. tumor were also assessed to ensure the 5F9 vcMMAE immunoconjugate was being processed by the tumors (i.e., that the immunoconjugate was being internalized and that MMAE was being cleaved). A comparison of free-MMAE serum and tumor levels in the MMAE-refractory PHTX-11c model and the sensitive PHTX-09c and HEK293 GCC #2 models is shown Table 27 below. The presence of drug was confirmed within the tumors during dosing and post-dosing. Additionally, the free-MMAE levels in this tumor model were the same as the levels seen in tumor xenograft models that were sensitive to the immunoconjugate.

[4] = tested on: PHTX-21c s.c. xenograft; test: MLN0264 and CPT-11 in PHTX-21C s.c. xenografts (Study CPGC-11-EF04); conditions: PHTX-21c
[5] = tested on: PHTX-09c s.c. xenograft; test: 5F9 vcMMAE and CPT-11 in PHTX-09C s.c. xenografts (Study CPGC-11-EF07)
[6] = tested on: PHTX-17c s.c. xenograft; test: MLN0264 and CPT-11 in PHTX-17C s.c. xenografts (Study CPGC-11-EF06); assay type: in vivo, CB-17 SCID mice; conditions: PHTX-17c
Protocol: (§1) Tumor volume was calculated using the formula: […]

[7] = tested on: PHTX-11c s.c. xenograft; test: MLN0264 and CPT-11 in PHTX-11c s.c. xenografts (Study CPGC-12-EF01); conditions: W1-W3
[8] = tested on: PHTX-09c s.c. xenograft; test: 5F9 vcMMAE and cisplatin in PHTX-09c s.c. xenografts (Study CPGC-11-EF05)
[9] = tested on: PHTX-21c s.c. xenograft; test: MLN0264 and 5-Fluorouracil in PHTX-21C s.c. xenografts (Study CPGC-11-EF01); assay type: in vivo, CB-17 SCID mice; conditions: for dAUC: 4 days off, reference vehicle
Protocol: as §1

[10] = Study A, 0.075 mg/kg IV QW × 3 doses
[11] = Study A, 0.15 mg/kg IV QW × 3 doses
[12] = Study B, 0.135 mg/kg IV QW × 3 doses
[13] = Study B, 0.18 mg/kg IV QW × 3 doses
[14] = CPT-11 10 mg/kg D1, D2 per week
[15] = CPT-11 15 mg/kg D1, D2 per week
[16] = PHTX-09c, CPT-11 10 mg/kg D1, 2 ×3 weeks
[17] = CPT-11 10 mg/kg 2 d on 5 off i.v.
[18] = CPT-11 15 mg/kg 2 d on 5 off i.v.

CC[C@H](C)[C@@H]([C@@H](CC(=O)N1CCC[C@H]1[C@H](OC)[C@@H](C)C(=O)N[C@H](C)[C@@H](O)c1ccccc1)OC)N(C)C(=O)[C@@H](NC(=O)[C@@H](NC)C(C)C)C(C)C [MMAE, monomethyl auristatin E, reference compound] (H-[NMeV]V[Dil][Dolaproine]-X1)
TGI ([1]; 300 μg/kg iv q7d×4): 35.6 | CR/PR ([1]; 300 μg/kg iv q7d×4): 0 | T/C ([1]; 300 μg/kg iv q7d×4): 0.64 | TGD ([1]; 300 μg/kg iv q7d×4): 2 | BW change (mean maximum percent) [2, 10]: 8.3% | TGD [2, 10]: 1.0 days | BW change (mean maximum percent) [2, 11]: 10.8% | TGD [2, 11]: 2.0 days | BW change (mean maximum percent) [2, 12]: 9.3% | TGD [2, 12]: 0.2 days | BW change (mean maximum percent) [2, 13]: −2.3% | TGD [2, 13]: 8.6 days | TGI ([2]; Study B, 0.18 mg/kg IV QW × 3 doses, Day 20, 0.18 mg/kg): 50.4 (p > 0.001) % | greatest maximum body weight loss during treatment period ([2]; Study B, day 7, 0.18 mg/kg MMAE group and 0.938 mg/kg 5F9-vcMMAE group): 2.3% | AUCinf Serum ([3]; 293 GCC #2 model): 56.3 ng·h/mL | AUCinf Tumor ([3]; 293 GCC #2 model): 24953 ng·h/mL | AUCinf Serum ([3]; PHTX-9C model): 68.3 ng·h/mL | AUCinf Tumor ([3]; PHTX-9C model): 8670 ng·h/mL | AUCinf Serum ([3]; PHTX-11C model): 44.1 ng·h/mL | AUCinf Tumor ([3]; PHTX-11C model): 13400 ng·h/mL | Tumor/Serum ([3]; 293 GCC #2 model): 443 | Tumor/Serum ([3]; PHTX-9C model): 127 | Tumor/Serum ([3]; PHTX-11C model): 304

CCc1c2c(nc3ccc(OC(=O)N4CCC(N5CCCCC5)CC4)cc13)-c1cc3c(c(=O)n1C2)COC(=O)[C@]3(O)CC [CPT-11, irinotecan]
Days to 1000 mm^3 [4, 14]: >15 days | T/C [4, 14]: 0.22 | TGI [4, 14]: 78.4% | Days to 1000 mm^3 [4, 15]: >15 days | T/C [4, 15]: 0.16 | TGI [4, 15]: 84.4% | Days to 1000 mm^3 ([4]; CPT-11 30 mg/kg D1 QW): >15 days | T/C ([4]; CPT-11 30 mg/kg D1 QW): 0.37 | TGI ([4]; CPT-11 30 mg/kg D1 QW): 62.8% | single agent anti-tumor activity ([4]; the two lower doses administered (10 and 15 mg/kg)): moderate to high single agent activity | single agent activity ([5]; PHTX-09c (FIGS. 8B and 8C)): moderate | Days to 1000 mm^3 [5, 16]: >23 days | T/C [5, 16]: 0.4 | TGI [5, 16]: 60.3% | Days to 1000 mm^3 ([6]; CPT-11 10 mg/kg QD 2on 5off): >17 days | T/C ([6]; CPT-11 10 mg/kg QD 2on 5off): 0.28 | TGI ([6]; CPT-11 10 mg/kg QD 2on 5off): 71.7% | Days to 1000 mm^3 ([6]; CPT-11 15 mg/kg 2 on 5off): >17 days | T/C ([6]; CPT-11 15 mg/kg 2 on 5off): 0.22 | TGI ([6]; CPT-11 15 mg/kg 2 on 5off): 77.7% | Days to 1000 mm^3 ([6]; CPT-11 30 mg/kg QW): >17 days | T/C ([6]; CPT-11 30 mg/kg QW): 0.4 | TGI ([6]; CPT-11 30 mg/kg QW): 60.5% | Days to 1000 mm^3 [7, 17]: >18 days | T/C [7, 17]: 0.34 | TGI [7, 17]: 65.9% | Days to 1000 mm^3 [7, 18]: >18 days | T/C [7, 18]: 0.31 | TGI [7, 18]: 69.2% | Days to 1000 mm^3 ([7]; CPT-11 30 mg/kg (D1 QW) i.v.): >18 days | T/C ([7]; CPT-11 30 mg/kg (D1 QW) i.v.): 0.39 | TGI ([7]; CPT-11 30 mg/kg (D1 QW) i.v.): 61.1%

CC[C@H](C)[C@@H]([C@@H](CC(=O)N1CCC[C@H]1[C@H](OC)[C@@H](C)C(=O)N[C@@H](Cc1ccccc1)C(=O)O)OC)N(C)C(=O)[C@@H](NC(=O)[C@H](C(C)C)N(C)C(=O)CCCCCN1C(=O)C=CC1=O)C(C)C [Free mcMMAF, reference compound] ({Hexanoyl(6-maleimido)}-[NMeV]V[Dil][Dolaproine]F-OH)
TGI ([1]; 150 μg/kg iv q7d×4): −3.4 | CR/PR ([1]; 150 μg/kg iv q7d×4): 0 | T/C ([1]; 150 μg/kg iv q7d×4): 1.03 | TGD ([1]; 150 μg/kg iv q7d×4): −1.3

N.N.[Cl][Pt][Cl] [cisplatin]
number of doses tolerated ([8]; 4 mg/kg once weekly): 2 doses | number of doses tolerated ([8]; 6 mg/kg once weekly): 1 dose | body weight loss ([8]; PHTX-09c, cisplatin alone): > 15% | dAUC ([8]; group C: cisplatin 4 mg/kg QW x2, reference vehicle): 50.6%

O=c1[nH]cc(F)c(=O)[nH]1 [5-FU, 5-Fluorouracil, reference compound]
single agent anti-tumor activity ([9]; PHTX-21c, 15 mg/kg and 25 mg/kg, 3 day on/4 day off): relatively low anti-tumor activity | dAUC ([9]; group E: 5-Fu 15 mg/kg 3 days on): 44.1% | dAUC ([9]; group F: 5-Fu 25 mg/kg 3 days on): 52.6%
